Patent publication US10889609B2, “Mannitol-based amphipathic compound and use thereof” (Industry-University Cooperation Foundation Hanyang …, priority 2015, dated 2021)
“And” between values parts separate entries of the source, which are not always exact repeats. Identical values can stand only once.

Key:
[1] = Critical micellar concentration (CMC) by hydrophobic fluorescence stain diphenylhexatriene (DPH); format: physicochemical
Excerpt: A method of measuring the CMC is not particularly limited, but the methods widely known in the related art may be used. For example, the CMC may be measured by a fluorescence detection method using diphenylhexatriene (DPH).
(§1) To determine characteristics of the MNAs of Preparative Example 1 to 10 synthesized according to the synthesis method of Example 1, the molecular weights (M.W.) and critical micellar concentrations (CMCs) of the MNAs and the hydrodynamic radii (Rh) of the formed micelles were measured.
(§2) Specifically, the critical micellar concentration (CMC) was measured using a hydrophobic fluorescence stain (diphenylhexatriene (DPH)), and the hydrodynamic radii (Rh) of the micelles formed by each of the preparations were measured by a dynamic light scattering (DLS) experiment. The measured results were compared to those of DDM that is a conventional amphipathic molecule (a detergent), and are listed in Table 1.

[2] = Hydrodynamic radius and size distribution of micelles by dynamic light scattering (DLS); format: physicochemical
Excerpt: A method of measuring the radius of the micelle is not particularly limited, but the methods widely known in the related art may be used. For example, the radius of the micelle may be measured using a dynamic light scattering (DLS) experiment.
as §1, §2
Meanwhile, the size distributions of the micelles formed by the MNAs were measured using DLS, and the measurement results are shown in FIG. 17. The MNAs were used at a content of 1.0% by weight.

boron transporter (Bor1) = target: T1, boron transporter (Bor1) (Arabidopsis thaliana, UniProt Q8VYR7); assay: Structural stability and extraction of Bor1 by heat fluorescence size exclusion chromatography (hFSEC); conditions: for level of Bor1 protein aggregation after heat treatment: 40° C. for 10 minutes, FIG. 18
T1 construct: made in house; host or cells: Saccharomyces cerevisiae FGY217
Procedure: An experiment for measuring the structural stability of a boron transporter (Bor1) by the MNAs was performed. The structural stability of Bor1 was measured using heat fluorescence size exclusion chromatography (hFSEC), and the concentrations of the MNAs and DDM were CMC plus 0.04% by weight. Specifically, Bor1 of Arabidopsis thaliana was expressed in Saccharomyces cerevisiae FGY217 cells as a fusion protein having a C-terminal GFP-His tag. The cells were grown in a -URA medium supplemented with 0.1% glucose. Expression of proteins was induced by adding 2% galactose, and the cells were then cultured at 20° C. for 18 hours. Here, the cell culture was carried out according to the method described in the article by D. Drew et al. (Nat. Protoc. 2008, 3, 784-798.). The cells were collected to prepare membranes, and the cell collection was carried out according to the method described in the article by J. Leung et al. (Protein Expr. Purif. 2010, 72, 139-146.). The membranes including the Bor1-GFP fusion protein were diluted with phosphate-buffered saline (PBS, pH 7.4) until the final concentration of the total proteins reached 2.8 mg/mL. In this case, 1% by weight of DDM or 1% by weight of MNA (MNA-1, MNA-2, MNA-3, MNA-4, MNA-5, MNA-6, or MNA-7) was added to the PBS. Samples were incubated for an hour while shaking at 4° C., and insoluble materials were then removed by centrifugation at 14,000 g and 4° C. for an hour. The supernatant including the dissolved protein samples was heated at 40° C. for 10 minutes, and the strongly aggregated proteins were removed by centrifugation at 14,000 g and 4° C. for 10 minutes. 200 μL of the supernatant of the samples was injected into a Superose 6 10/300 column equilibrated with 20 mM Tris (pH 7.5), 150 mM NaCl, and 0.03% DDM. Each of elution fractions was collected in 200 μL fractions at a retention volume of 6.4 mL (e.g., 6.4 mL after elusion) in a clear bottom 96-well plate. The GFP fluorescence of each of the fractions was measured at an excitation wavelength of 470 nm and an emission wavelength of 512 nm.

[3] = target: T2, human β2 adrenergic receptor (β2AR) (Homo sapiens, UniProt P07550); assay: mBBr-β2AR bimane spectra at detergent concentration below CMC; format: biochemical; conditions: detergent diluted to a fiftieth of its CMC, compared to DDM, FIG. 21
T2 construct: made in house
Procedure: Experiments for comparing the structural changes of the β2AR protein by the MNAs and DDM at a concentration below CMCs of the amphipathic molecules were performed.
Specifically, 0.5 μL of a non-ligand mBBr-labeled receptor dissolved at 50 μNI in a 20×CMC concentration of MNA-5, MNA-6, or MNA-7 was diluted with 500 μL of an NH buffer (20 mM HEPES pH 7.5, and 100 mM NaCl). The proteins were cultured for 30 minutes, and the bimane spectra thereof were measured. The receptor dissolved in 0.1% DDM was diluted with the NH buffer, and used as the control. Data was presented as an average of three separate experiments performed in triplicate.

[4] = target: T2, human β2 adrenergic receptor (β2AR); assay: Size exclusion chromatography (SEC) of β2AR protein-detergent complexes (PDCs); conditions: Superdex-200, FIG. 23
Procedure: An SEC analysis was performed to determine the size of the protein-amphipathic molecule complex (i.e., a protein-detergent complex (PDC)) formed by DDM, MNA-6, or MNA-7.
Specifically, the β2AR dissolved in DDM, MNA-6 or MNA-7 was used as a test sample in the same manner as used in Example 5-3. The sample was loaded onto a Superdex-200 10/300 GL column (GE Healthcare) at 0.5 ml/min, an innate tryptophane fluorescence signal was measured at an excitation wavelength of 295 nm and an emission wavelength of 345 nm. A running buffer includes 20 mM HEPES pH 7.5, 100 mM NaCl, and 20×CMC MNA-6 or MNA-7. A difference in retention volume of the protein samples means a difference in size of the protein-detergent complexes (PDCs) formed in the presence of the amphipathic molecules.

[5] = target: T2, human β2 adrenergic receptor (β2AR); assay: Negative-stain electron microscopy (EM) of β2AR dissolved in detergent; conditions: negative staining, compared to DDM, FIG. 24
Procedure: A β2AR protein analysis test was performed for DDM, MNA-6, or MNA-7 using an electron microscope.
Specifically, samples were prepared using the conventional negative staining protocol disclosed in the article by M. Ohi et al. (Biol. Proced. Online 2004, 6, 23-34.). In summary, 3 μL of β2AR dissolved in DDM, MNA-6, or MNA-7 was pipetted onto a glow-discharged carbon-coated grid, and stained with 1% (w/v) uranyl formate. Thereafter, the β2AR was imaged at room temperature by running a Morgagni 268(D) transmission electron microscope (FEI Company) at 100 kV. The images were recorded at 30,416×calibrated magnification using an Orius SC200W CCD camera (Gatan Inc.).

T1 sequence (Q8VYR7 whole entry): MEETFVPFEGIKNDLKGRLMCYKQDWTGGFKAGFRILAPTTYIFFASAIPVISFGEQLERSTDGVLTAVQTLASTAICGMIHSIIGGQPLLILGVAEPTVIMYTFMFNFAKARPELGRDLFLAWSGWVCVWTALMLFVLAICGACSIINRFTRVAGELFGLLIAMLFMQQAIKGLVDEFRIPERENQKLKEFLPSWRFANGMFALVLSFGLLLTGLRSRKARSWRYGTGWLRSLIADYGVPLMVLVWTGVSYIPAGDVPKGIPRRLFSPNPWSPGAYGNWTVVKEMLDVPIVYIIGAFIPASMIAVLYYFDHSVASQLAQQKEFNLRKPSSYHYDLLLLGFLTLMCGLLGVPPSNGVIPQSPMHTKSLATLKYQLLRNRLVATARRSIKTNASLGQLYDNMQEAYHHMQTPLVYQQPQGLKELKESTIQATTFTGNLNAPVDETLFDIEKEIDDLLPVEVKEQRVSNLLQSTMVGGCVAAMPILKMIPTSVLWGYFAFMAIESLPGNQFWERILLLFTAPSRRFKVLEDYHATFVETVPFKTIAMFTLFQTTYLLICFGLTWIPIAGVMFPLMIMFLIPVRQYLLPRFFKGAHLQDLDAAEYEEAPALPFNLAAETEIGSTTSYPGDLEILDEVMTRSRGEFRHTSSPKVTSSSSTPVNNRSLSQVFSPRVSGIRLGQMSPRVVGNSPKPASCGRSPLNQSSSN
T2 sequence (P07550 whole entry): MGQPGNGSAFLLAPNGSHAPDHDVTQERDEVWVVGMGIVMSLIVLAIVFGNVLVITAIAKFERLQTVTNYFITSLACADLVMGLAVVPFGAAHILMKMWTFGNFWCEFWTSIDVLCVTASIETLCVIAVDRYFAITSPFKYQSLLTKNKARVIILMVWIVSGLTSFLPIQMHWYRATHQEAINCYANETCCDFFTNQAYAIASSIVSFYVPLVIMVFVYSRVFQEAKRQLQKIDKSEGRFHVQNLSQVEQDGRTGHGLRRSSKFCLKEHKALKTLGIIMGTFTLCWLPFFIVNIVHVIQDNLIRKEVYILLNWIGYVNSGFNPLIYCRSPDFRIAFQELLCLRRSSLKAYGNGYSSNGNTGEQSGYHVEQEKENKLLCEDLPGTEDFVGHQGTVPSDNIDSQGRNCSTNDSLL

Row | SMILES | CMC value [1] | CMC ([1]; aqueous solution) | CMC (% by weight) ([1]; aqueous solution) | Rh (nm), hydrodynamic radius of micelles [2] | Bor1 extraction efficiency (boron transporter (Bor1); 1% by weight detergent, membranes with Bor1-GFP) | level of Bor1 protein aggregation after heat treatment (boron transporter (Bor1); hFSEC) | effect on stabilization of Bor1 (boron transporter (Bor1); hFSEC, aggregation level and size of target protein peak) | stability of β2AR [3] | size of β2AR protein-detergent complexes (PDCs) [4] | EM image background of dissolved β2AR [5]
1 | CCCCCCCCCCCCO[C@@H]1O[C@H](CO)[C@@H](O[C@H]2O[C@H](CO)[C@@H](O)[C@H](O)[C@H]2O)[C@H](O)[C@H]1O [DDM, n-dodecyl-β-D-maltopyranoside, reference compound] | 170 µM | ~0.17 mM | Approximately 0.0087 % by weight | 3.4 nm and 3.4 ± 0.03 nm | 80% | significant level of protein aggregation |  |  |  | 
2 | CCCCCCCCO[C@H]([C@@H](OCCCCCCCC)[C@H](CO[C@@H]1OC(CO)[C@@H](O)C(O)C1O)O[C@@H]1OC(CO)[C@@H](O)C(O)C1O)[C@H](CO[C@@H]1OC(CO)[C@@H](O)C(O)C1O)O[C@@H]1OC(CO)[C@@H](O)C(O)C1O (some centres unmarked) [MNA-1] |  | ~0.15 mM |  | 2.3 nm and 2.3 ± 0.13 nm |  |  |  |  |  | 
3 | CCCCCCCCCO[C@H]([C@@H](OCCCCCCCCC)[C@H](CO[C@@H]1OC(CO)[C@@H](O)C(O)C1O)O[C@@H]1OC(CO)[C@@H](O)C(O)C1O)[C@H](CO[C@@H]1OC(CO)[C@@H](O)C(O)C1O)O[C@@H]1OC(CO)[C@@H](O)C(O)C1O (some centres unmarked) [MNA-2] |  | ~0.05 mM |  | 2.5 nm and 2.5 ± 0.05 nm |  |  |  |  |  | 
4 | CCCCCCCCCCO[C@H]([C@@H](OCCCCCCCCCC)[C@H](CO[C@@H]1OC(CO)[C@@H](O)C(O)C1O)O[C@@H]1OC(CO)[C@@H](O)C(O)C1O)[C@H](CO[C@@H]1OC(CO)[C@@H](O)C(O)C1O)O[C@@H]1OC(CO)[C@@H](O)C(O)C1O (some centres unmarked) [MNA-3] |  | ~0.015 mM |  | 2.7 nm and 2.7 ± 0.04 nm |  |  |  |  |  | 
5 | CCCCCCCCCCCO[C@H]([C@@H](OCCCCCCCCCCC)[C@H](CO[C@@H]1OC(CO)[C@@H](O)C(O)C1O)O[C@@H]1OC(CO)[C@@H](O)C(O)C1O)[C@H](CO[C@@H]1OC(CO)[C@@H](O)C(O)C1O)O[C@@H]1OC(CO)[C@@H](O)C(O)C1O (some centres unmarked) [MNA-4] |  | ~0.006 mM |  | 2.9 nm and 2.9 ± 0.12 nm |  | level of protein aggregation similar to DDM |  |  |  | 
6 | CCCCCCCCCCCCCO[C@H]([C@@H](OCCCCCCCCCCCCC)[C@H](CO[C@@H]1OC(CO)[C@@H](O)C(O)C1O)O[C@@H]1OC(CO)[C@@H](O)C(O)C1O)[C@H](CO[C@@H]1OC(CO)[C@@H](O)C(O)C1O)O[C@@H]1OC(CO)[C@@H](O)C(O)C1O (some centres unmarked) [MNA-6] | 2 µM | ~0.002 mM |  | 3.3 nm and 3.3 ± 0.04 nm |  | lower level of Bor1 aggregation than DDM | best effect on stabilization of the Bor1 | secured for a prolonged period of time | smaller in size compared to those formed by DDM | uniform background clutter that were relatively smaller in quantity
7 | CCCCCCCCCCCCCCO[C@H]([C@@H](OCCCCCCCCCCCCCC)[C@H](CO[C@@H]1OC(CO)[C@@H](O)C(O)C1O)O[C@@H]1OC(CO)[C@@H](O)C(O)C1O)[C@H](CO[C@@H]1OC(CO)[C@@H](O)C(O)C1O)O[C@@H]1OC(CO)[C@@H](O)C(O)C1O (some centres unmarked) [MNA-7] | 1 µM | ~0.001 mM |  | 3.3 nm and 3.3 ± 0.08 nm |  | lower level of Borl aggregation than DDM |  | secured for a prolonged period of time | smaller in size compared to those formed by DDM | uniform background clutter that were relatively smaller in quantity
8 | CCCCCCCCCCCCCCCO[C@H]([C@@H](OCCCCCCCCCCCCCCC)[C@H](CO[C@@H]1OC(CO)[C@@H](O)C(O)C1O)O[C@@H]1OC(CO)[C@@H](O)C(O)C1O)[C@H](CO[C@@H]1OC(CO)[C@@H](O)C(O)C1O)O[C@@H]1OC(CO)[C@@H](O)C(O)C1O (some centres unmarked) [MNA-8] |  | ~0.003 mM |  | 3.5 nm and 3.5 ± 0.1 nm |  |  |  |  |  | 
9 | CCCCCCCCCCCCCCCCO[C@H]([C@@H](OCCCCCCCCCCCCCCCC)[C@H](CO[C@@H]1OC(CO)[C@@H](O)C(O)C1O)O[C@@H]1OC(CO)[C@@H](O)C(O)C1O)[C@H](CO[C@@H]1OC(CO)[C@@H](O)C(O)C1O)O[C@@H]1OC(CO)[C@@H](O)C(O)C1O (some centres unmarked) [MNA-9] | 1 µM | ~0.001 mM |  | 3.8 nm and 3.8 ± 0.1 nm |  |  |  |  |  | 
10 | CCCCCCCCCCCCCCCCCO[C@H]([C@@H](OCCCCCCCCCCCCCCCCC)[C@H](CO[C@@H]1OC(CO)[C@@H](O)C(O)C1O)O[C@@H]1OC(CO)[C@@H](O)C(O)C1O)[C@H](CO[C@@H]1OC(CO)[C@@H](O)C(O)C1O)O[C@@H]1OC(CO)[C@@H](O)C(O)C1O (some centres unmarked) [MNA-10] | 1 µM | ~0.001 mM |  | 4.1 nm and 4.1 ± 0.2 nm |  |  |  |  |  | 
